Experiments:
[1] = cited from earlier work
[2] = system: canines with keratoconjunctivitis sicca; experiment: Clinical trial of topical tacrolimus in treatment of canine keratoconjunctivitis sicca; assay type: in vivo, dogs; conditions: twice daily, 30 days
Method: A population of canines with keratoconjunctivitis sicca was subject to a method of treatment with a topical tacrolimus solution in order to evaluate the therapeutic effectiveness of the drug. Materials • 0.02% tacrolimus was prepared in a physiologically acceptable ointment base. • 0.02% tacrolimus was prepared in a physiologically acceptable oil base. • Schirmer Tear Test strips were employed to measure tearing. • Petrolatum eye ointment was used for patient comfort. • Commercial eyewash was used as a cleaning solution. The test group consisted of 26 dogs of various breeds from different geographic areas. […] 24 dogs were administered a dose of tacrolimus in either ointment or oil base twice daily in both eyes for 30 days. 2 dogs received the same treatment in only one eye. Petrolatum ointment was administered to some dogs as necessary for comfort. Debris was flushed from the eyes as necessary using a commercial eyewash preparation. The eyes were examined and observations recorded at days 7-14 and again at 21-30 days during treatment.

immune response = conditions: 'thought to be'; cited from earlier work

Structure (SMILES): C=CC[C@@H]1/C=C(\C)C[C@H](C)C[C@H](OC)[C@H]2O[C@@](O)(C(=O)C(=O)N3CCCC[C@H]3C(=O)O[C@H](/C(C)=C/[C@@H]3CC[C@@H](O)[C@H](OC)C3)[C@H](C)[C@@H](O)CC1=O)[C@H](C)C[C@@H]2OC [Tacrolimus]
- solubility in alcohols and some oils ([1]; alcohols and some oils): soluble
- solubility in water ([1]; water): practically insoluble
- signs of ocular irritation ([2]; 0.02% tacrolimus in ointment or oil base, topical): None of the subjects exhibited signs of ocular irritation
- treated eyes exhibiting improvement ([2]; 0.02% tacrolimus in ointment or oil base, topical, 26 dogs with KCS): 96%
- treated eyes exhibiting improved Schirmer Tear Test (STT) values ([2]; 0.02% tacrolimus in ointment or oil base, topical, 60 second STT): 92%
- additional effect: corneal scarring and pigmentation ([2]; 0.02% tacrolimus topical): reduction in corneal scarring and pigmentation
- additional effect: inflammation of the conjunctiva ([2]; 0.02% tacrolimus topical): reduction in inflammation of the conjunctiva
- effectiveness in dogs, including those where cyclosporine had previously failed ([2]; 0.02% tacrolimus topical): effective in some dogs for whom cyclosporine treatment had previously failed
- potency relative to cyclosporine on a per gram basis (immune response): up to 100 times
